Results published in ChEMBL document CHEMBL4130462, “Natural isoflavone biochanin A as a template for the design of new and potent 3-phenylquinolone efflux inhibitors against Mycobacterium avium” (Eur J Med Chem, 2017).
In brackets after ≈: the same amount, converted by molar mass.

Key:
Mycobacterium avium [1] = settings: 104 mc'2 4
Mycobacterium avium [2] = settings: 104
Mycobacterium avium [3] = settings: isolate MAV3
Mycobacterium avium [4] = settings: 104 mc'2 4; remark: listed apart in the source
[5] = system: Mycobacterium avium subsp. avium ATCC 25291
Mycobacterium avium [6] = test: Antimycobacterial activity against Mycobacterium avium isolate MAV2 assessed as reduction in bacterial viability incubated for 3 days by MTT assay; type: organism-based; settings: 72 h
Mycobacterium avium [7] = settings: isolate MAV1
Description: Inhibition of multidrug resistance efflux pump in Mycobacterium avium isolate MAV1 assessed as potentiation of ofloxacin-induced antibacterial activity by measuring ofloxacin MIC at 1/2 MIC incubated for 3 days by MTT assay (Rvb = 4 ug/ml)

Mycobacterium avium [8] = settings: isolate MAV2
Mycobacterium avium [9] = settings: 104 mc'2 4; remark: listed apart in the source
Mycobacterium avium [10] = settings: isolate MAV3; remark: listed apart in the source
Mycobacterium avium [11] = settings: 104; remark: listed apart in the source
[12] = system: Mycobacterium avium subsp. avium ATCC 25291; remark: listed apart in the source
Description: Inhibition of multidrug resistance efflux pump in Mycobacterium avium ATCC 25291 assessed as potentiation of clarithromycin -induced antibacterial activity by measuring clarithromycin MIC at 1/4 MIC incubated for 3 days by MTT assay

Mycobacterium avium [13] = settings: 104 mc'2 3
[14] = system: Mycobacterium avium subsp. avium ATCC 25291; remark: listed apart in the source
Mycobacterium avium [15] = settings: 104 mc'2 4; remark: listed apart in the source
[16] = system: Mycobacterium avium subsp. avium ATCC 25291; remark: listed apart in the source
Description: Inhibition of multidrug resistance efflux pump in Mycobacterium avium ATCC 25291 assessed as potentiation of ethidium bromide-induced antibacterial activity by measuring ethidium bromide MIC at 1/2 MIC incubated for 3 days by MTT assay (Rvb = 50 ug/ml)

[17] = system: Mycobacterium avium subsp. avium ATCC 25291; remark: listed apart in the source
Description: Inhibition of multidrug resistance efflux pump in Mycobacterium avium ATCC 25291 assessed as potentiation of clarithromycin -induced antibacterial activity by measuring clarithromycin MIC at 1/2 MIC incubated for 3 days by MTT assay

Mycobacterium avium [18] = settings: 104; remark: listed apart in the source
Mycobacterium avium [19] = settings: 104; remark: listed apart in the source
Mycobacterium avium [20] = settings: isolate MAV3; remark: listed apart in the source
Mycobacterium avium [21] = settings: isolate MAV4
Mycobacterium avium [22] = settings: isolate MAV3; remark: listed apart in the source
Mycobacterium avium [23] = settings: 104 mc'2 3; remark: listed apart in the source
[24] = system: Mycobacterium avium subsp. avium ATCC 25291; remark: listed apart in the source
Mycobacterium avium [25] = settings: isolate MAV2; remark: listed apart in the source
Mycobacterium avium [26] = settings: isolate MAV1; remark: listed apart in the source
Mycobacterium avium [27] = settings: isolate MAV4; remark: listed apart in the source
Description: Inhibition of multidrug resistance efflux pump in Mycobacterium avium isolate MAV4 assessed as potentiation of clarithromycin -induced antibacterial activity by measuring clarithromycin MIC at 1/4 MIC incubated for 3 days by MTT assay

[28] = system: Mycobacterium avium subsp. avium ATCC 25291; remark: listed apart in the source
Mycobacterium avium [29] = settings: 104; remark: listed apart in the source
Mycobacterium avium [30] = settings: 104; remark: listed apart in the source
Mycobacterium avium [31] = settings: isolate MAV1; remark: listed apart in the source
Description: Inhibition of multidrug resistance efflux pump in Mycobacterium avium isolate MAV1 assessed as potentiation of ciprofloxacin-induced antibacterial activity by measuring ciprofloxacin MIC at 1/2 MIC incubated for 3 days by MTT assay (Rvb = 2 ug/ml)

Mycobacterium avium [32] = settings: isolate MAV2; remark: listed apart in the source
Description: Inhibition of multidrug resistance efflux pump in Mycobacterium avium isolate MAV2 assessed as potentiation of ofloxacin-induced antibacterial activity by measuring ofloxacin MIC at 1/2 MIC incubated for 3 days by MTT assay

Mycobacterium avium [33] = settings: isolate MAV2; remark: listed apart in the source
Mycobacterium avium [34] = settings: 104 mc'2 4; remark: listed apart in the source
Mycobacterium avium [35] = settings: 104 mc'2 3; remark: listed apart in the source
Mycobacterium avium [36] = settings: isolate MAV4; remark: listed apart in the source
Description: Inhibition of multidrug resistance efflux pump in Mycobacterium avium isolate MAV4 assessed as potentiation of ethidium bromide-induced antibacterial activity by measuring ethidium bromide MIC at 1/4 MIC incubated for 3 days by MTT assay

Mycobacterium avium [37] = settings: isolate MAV4; remark: listed apart in the source
Mycobacterium avium [38] = settings: isolate MAV1; remark: listed apart in the source
Mycobacterium avium [39] = test: Antimycobacterial activity against Mycobacterium avium isolate MAV3 assessed as reduction in bacterial viability incubated for 3 days by MTT assay; type: organism-based; settings: 72 h
Mycobacterium avium [40] = settings: isolate MAV2; remark: listed apart in the source
Description: Inhibition of multidrug resistance efflux pump in Mycobacterium avium isolate MAV2 assessed as potentiation of clarithromycin -induced antibacterial activity by measuring clarithromycin MIC at 1/4 MIC incubated for 3 days by MTT assay (Rvb = >1024 ug/ml)

Mycobacterium avium [41] = settings: isolate MAV1; remark: listed apart in the source
Mycobacterium avium [42] = settings: isolate MAV3; remark: listed apart in the source
Mycobacterium avium [43] = settings: 104 mc'2 4; remark: listed apart in the source
Mycobacterium avium [44] = settings: isolate MAV4; remark: listed apart in the source
[45] = Cytotoxicity in human monocyte-derived macrophages assessed as reduction in cell viability incubated for 3 days by alamar blue dye based assay; parameters: species or system Macrophage cell line
Mycobacterium avium [46] = settings: 104 mc'2 4; remark: listed apart in the source
Mycobacterium avium [47] = settings: 104 mc'2 3; remark: listed apart in the source
Mycobacterium avium [48] = settings: 104 mc'2 4; remark: listed apart in the source
Mycobacterium avium [49] = settings: isolate MAV3; remark: listed apart in the source
Mycobacterium avium [50] = settings: 104; remark: listed apart in the source
Description: Inhibition of multidrug resistance efflux pump in Mycobacterium avium 104 assessed as potentiation of clarithromycin -induced antibacterial activity by measuring clarithromycin MIC at 1/2 MIC incubated for 3 days by MTT assay

Mycobacterium avium [51] = settings: isolate MAV4; remark: listed apart in the source
Mycobacterium avium [52] = settings: isolate MAV3; remark: listed apart in the source
Mycobacterium avium [53] = settings: isolate MAV4; remark: listed apart in the source
Mycobacterium avium [54] = settings: isolate MAV2; remark: listed apart in the source
Mycobacterium avium [55] = settings: 104 mc'2 3; remark: listed apart in the source
Mycobacterium avium [56] = settings: isolate MAV4; remark: listed apart in the source
Mycobacterium avium [57] = settings: 104 mc'2 4; remark: listed apart in the source
Mycobacterium avium [58] = settings: 104; remark: listed apart in the source
Mycobacterium avium [59] = settings: isolate MAV3; remark: listed apart in the source
Mycobacterium avium [60] = settings: isolate MAV3; remark: listed apart in the source
Mycobacterium avium [61] = settings: 104; remark: listed apart in the source
Mycobacterium avium [62] = settings: isolate MAV1; remark: listed apart in the source
Mycobacterium avium [63] = settings: 104; remark: listed apart in the source
Description: Inhibition of multidrug resistance efflux pump in Mycobacterium avium 104 assessed as potentiation of clarithromycin -induced antibacterial activity by measuring clarithromycin MIC at 1/4 MIC incubated for 3 days by MTT assay

Mycobacterium avium [64] = settings: isolate MAV1; remark: listed apart in the source
[65] = system: Mycobacterium avium subsp. avium ATCC 25291; remark: listed apart in the source
Mycobacterium avium [66] = settings: isolate MAV2; remark: listed apart in the source
Mycobacterium avium [67] = settings: isolate MAV1; remark: listed apart in the source

`CSc1ccc2c(c1)N(CCC1CCCCN1C)c1ccccc1S2` (stereo not drawn) [THIORIDAZINE] gave an MIC (Mycobacterium avium [1]) greater than 512 µg/mL, an MIC (Mycobacterium avium [2]) of 4 µg/mL (≈ 10.8 µM) and an MIC (Mycobacterium avium [3]) of 4 µg/mL (≈ 10.8 µM). It also gave an MIC (Mycobacterium avium [4]) of 0.5 µg/mL (≈ 1.35 µM), an MIC [5] of 4 µg/mL (≈ 10.8 µM) and an MIC (Mycobacterium avium [6]) of 30 µg/mL (≈ 81 µM). The MIC (Mycobacterium avium [7]) was less than 0.0625 µg/mL, the MIC (Mycobacterium avium [8]) was 12.5 µg/mL (≈ 33.7 µM) and the MIC (Mycobacterium avium [9]) was 32 µg/mL (≈ 86.3 µM). For the same molecule, the MIC (Mycobacterium avium [10]) was 64 µg/mL (≈ 173 µM), the MIC (Mycobacterium avium [11]) was 6.25 µg/mL (≈ 16.9 µM) and the MIC [12] was 2 µg/mL (≈ 5.4 µM). For the same molecule, the MIC (Mycobacterium avium [13]) was less than 4 µg/mL, the MIC [14] was 32 µg/mL (≈ 86.3 µM) and the MIC (Mycobacterium avium [15]) was 128 µg/mL (≈ 345 µM). It also gave an MIC [16] of 6.25 µg/mL (≈ 16.9 µM), an MIC [17] of 1 µg/mL (≈ 2.7 µM) and an MIC (Mycobacterium avium [18]) of 12.5 µg/mL (≈ 33.7 µM). The MIC (Mycobacterium avium [19]) was 2 µg/mL (≈ 5.4 µM), the MIC (Mycobacterium avium [20]) was 8 µg/mL (≈ 21.6 µM) and the MIC (Mycobacterium avium [21]) was 128 µg/mL (≈ 345 µM). The MIC (Mycobacterium avium [22]) was 64 µg/mL (≈ 173 µM), the MIC (Mycobacterium avium [23]) was 8 µg/mL (≈ 21.6 µM) and the MIC [24] was 32 µg/mL (≈ 86.3 µM). It also gave an MIC (Mycobacterium avium [25]) greater than 512 µg/mL, an MIC (Mycobacterium avium [26]) of 0.0625 µg/mL (≈ 0.169 µM) and an MIC (Mycobacterium avium [27]) of 4 µg/mL (≈ 10.8 µM). It also gave an MIC [28] of 32 µg/mL (≈ 86.3 µM), an MIC (Mycobacterium avium [29]) of 64 µg/mL (≈ 173 µM) and an MIC (Mycobacterium avium [30]) of 128 µg/mL (≈ 345 µM). It also gave an MIC (Mycobacterium avium [31]) of less than 0.031 µg/mL, an MIC (Mycobacterium avium [32]) of 0.5 µg/mL (≈ 1.35 µM) and an MIC (Mycobacterium avium [33]) of 6.25 µg/mL (≈ 16.9 µM). For the same molecule, the MIC (Mycobacterium avium [34]) was 4 µg/mL (≈ 10.8 µM), the MIC (Mycobacterium avium [35]) was 12.5 µg/mL (≈ 33.7 µM) and the MIC (Mycobacterium avium [36]) was 25 µg/mL (≈ 67.5 µM). The MIC (Mycobacterium avium [37]) was 16 µg/mL (≈ 43.2 µM), the MIC (Mycobacterium avium [38]) was less than 4 µg/mL and the MIC (Mycobacterium avium [39]) was 30 µg/mL (≈ 81 µM). The MIC (Mycobacterium avium [40]) was greater than 512 µg/mL, the MIC (Mycobacterium avium [41]) was 0.78 µg/mL (≈ 2.1 µM) and the MIC (Mycobacterium avium [42]) was 12.5 µg/mL (≈ 33.7 µM). For the same molecule, the MIC (Mycobacterium avium [43]) was greater than 512 µg/mL, the MIC (Mycobacterium avium [44]) was 64 µg/mL (≈ 173 µM) and the CC50 at 72 h ([45]; human monocyte-derived macrophages) was 13.8 µM. The MTC ([45]; macrophage cell line, 72 h) was 2.5 µM, the MIC (Mycobacterium avium [46]) was greater than 512 µg/mL and the MIC (Mycobacterium avium [47]) was 4 µg/mL (≈ 10.8 µM). It also gave an MIC (Mycobacterium avium [48]) of 256 µg/mL (≈ 691 µM), an MIC (Mycobacterium avium [49]) of 16 µg/mL (≈ 43.2 µM) and an MIC (Mycobacterium avium [50]) of 2 µg/mL (≈ 5.4 µM). For the same molecule, the MIC (Mycobacterium avium [51]) was 4 µg/mL (≈ 10.8 µM), the MIC (Mycobacterium avium [52]) was 128 µg/mL (≈ 345 µM) and the MIC (Mycobacterium avium [53]) was 8 µg/mL (≈ 21.6 µM). It also gave an MIC (Mycobacterium avium [54]) of 0.25 µg/mL (≈ 0.675 µM), an MIC (Mycobacterium avium [55]) of less than 0.125 µg/mL and an MIC (Mycobacterium avium [56]) of 256 µg/mL (≈ 691 µM). The MIC (Mycobacterium avium [57]) was 0.25 µg/mL (≈ 0.675 µM), the MIC (Mycobacterium avium [58]) was 4 µg/mL (≈ 10.8 µM) and the MIC (Mycobacterium avium [59]) was 2 µg/mL (≈ 5.4 µM). It also gave an MIC (Mycobacterium avium [60]) of 4 µg/mL (≈ 10.8 µM), an MIC (Mycobacterium avium [61]) of 256 µg/mL (≈ 691 µM) and an MIC (Mycobacterium avium [62]) of less than 0.195 µg/mL. It also gave an MIC (Mycobacterium avium [63]) of 4 µg/mL (≈ 10.8 µM), an MIC (Mycobacterium avium [64]) of less than 4 µg/mL and an MIC [65] of 8 µg/mL (≈ 21.6 µM). It also gave an MIC (Mycobacterium avium [66]) of 512 µg/mL (≈ 1380 µM) and an MIC (Mycobacterium avium [67]) of less than 0.031 µg/mL.
